Experimental data: patent US20250230193A1, “CYCLIC COMPOUND HAVING SELECTIVE KRAS INHIBITORY EFFECT ON HRAS AND NRAS” (CHUGAI SEIYAKU KABUSHIKI KAISHA, priority 2022, published 2025)
Where a SMILES comes first, the peptide text is derived from it. Bridges are numbered along the chain shown (N, C = ends). [ ]: non-standard residue; d: D form. The star is where a group is joined. hPhe(3-Cl-4-CF3) = N[C@@H](CCc1ccc(C(F)(F)F)c(Cl)c1)C(=O)O; NPrPhe(4-CF3) = CCCN[C@@H](Cc1ccc(C(F)(F)F)cc1)C(=O)O; NMeGly(cPent) = CN[C@H](C(=O)O)C1CCCC1; Ac4c(3,3-Me2) = CC1(C)CC(N)(C(=O)O)C1; NEtLeu = CCN[C@@H](CC(C)C)C(=O)O; NMeD = CN[C@@H](CC(=O)O)C(=O)O; NMeL = CN[C@@H](CC(C)C)C(=O)O; Morpholide = C1CN(*)CCO1; Ac5c = NC1(C(=O)O)CCCC1; NEtG = CCNCC(=O)O; Sar = CNCC(=O)O; Propyl = CCC*

What was measured:
[1] = biological target: GDP-bound NRAS wild-type protein (Homo sapiens, UniProt P01111); assay: Binding to NRAS by surface plasmon resonance (SPR), Single Cycle Kinetics; conditions: KD ratio, GDP-bound NRAS wild-type vs GDP-bound KRAS wild-type, SPR
Sequence of GDP-bound NRAS wild-type protein (P01111 whole entry): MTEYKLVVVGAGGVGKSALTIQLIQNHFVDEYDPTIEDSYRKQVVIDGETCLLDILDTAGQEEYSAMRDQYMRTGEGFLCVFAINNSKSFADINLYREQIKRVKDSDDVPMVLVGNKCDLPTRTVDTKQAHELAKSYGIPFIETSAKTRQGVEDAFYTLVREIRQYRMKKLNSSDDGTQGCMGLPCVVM

[2] = biological target: GDP-bound HRAS wild-type protein (Homo sapiens, UniProt P01112); assay: Binding to HRAS by surface plasmon resonance (SPR), Single Cycle Kinetics; conditions: KD ratio, GDP-bound HRAS wild-type vs GDP-bound KRAS wild-type, SPR
Sequence of GDP-bound HRAS wild-type protein (P01112 whole entry): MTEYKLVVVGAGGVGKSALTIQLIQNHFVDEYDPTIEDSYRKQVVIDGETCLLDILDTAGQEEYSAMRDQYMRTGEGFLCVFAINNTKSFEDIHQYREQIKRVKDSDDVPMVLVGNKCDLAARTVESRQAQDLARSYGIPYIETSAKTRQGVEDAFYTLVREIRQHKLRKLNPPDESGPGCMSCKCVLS

SMILES | NRAS/KRAS (ratio of KD value for NRAS to KD value for KRAS) [1] | HRAS/KRAS (ratio of KD value for HRAS to KD value for KRAS) [2]
CCCN1C(=O)CN(C)C(=O)CN(C)C(=O)[C@H]([C@@H](C)OCC)NC(=O)[C@H](CC(C)C)N(C)C(=O)C[C@@H](C(=O)N2CCOCC2)N(C)C(=O)[C@H](C2CCCC2)N(C)C(=O)C2(CC(C)(C)C2)NC(=O)[C@@H]2CCCN2C(=O)[C@H](CCc2ccc(C(F)(F)F)c(Cl)c2)NC(=O)CN(C)C(=O)[C@@H]1Cc1ccc(C(F)(F)F)cc1 [PP1964] ([NMeL]T(Et)[Sar][Sar][NPrPhe(4-CF3)][Sar][hPhe(3-Cl-4-CF3)]P[Ac4c(3,3-Me2)][NMeGly(cPent)][NMeD]-Morpholide; lactam N-11) | B (a compound having 3 or more and less than 10 is denoted as B) | B (a compound having 3 or more and less than 10 is denoted as B)
CCCO[C@H](C)[C@@H]1NC(=O)[C@H](CC(C)C)N(C)C(=O)C[C@@H](C(=O)N2CCOCC2)N(C)C(=O)[C@H](C2CCCC2)N(C)C(=O)C2(CC(C)(C)C2)NC(=O)[C@@H]2CCCN2C(=O)[C@H](CCc2ccc(C(F)(F)F)c(Cl)c2)NC(=O)CN(C)C(=O)[C@H](Cc2ccc(C(F)(F)F)cc2)N(CCC)C(=O)CN(C)C(=O)CN(C)C1=O [PP1965] ([NMeL]T(Propyl)[Sar][Sar][NPrPhe(4-CF3)][Sar][hPhe(3-Cl-4-CF3)]P[Ac4c(3,3-Me2)][NMeGly(cPent)][NMeD]-Morpholide; lactam N-11) | B (a compound having 3 or more and less than 10 is denoted as B) | B (a compound having 3 or more and less than 10 is denoted as B)
CCCN1C(=O)CN(C)C(=O)CNC(=O)[C@H]([C@@H](C)CC)NC(=O)[C@H](CC(C)C)N(CC)C(=O)C[C@@H](C(=O)N2CCOCC2)N(C)C(=O)[C@H](C2CCCC2)N(C)C(=O)C2(CCCC2)NC(=O)[C@@H]2CCCN2C(=O)[C@H](CCc2ccc(C(F)(F)F)c(Cl)c2)NC(=O)CN(C)C(=O)[C@@H]1Cc1ccc(C(F)(F)F)cc1 [PP1967] ([NEtLeu]IG[Sar][NPrPhe(4-CF3)][Sar][hPhe(3-Cl-4-CF3)]P[Ac5c][NMeGly(cPent)][NMeD]-Morpholide; lactam N-11) | B (a compound having 3 or more and less than 10 is denoted as B) | B (a compound having 3 or more and less than 10 is denoted as B)
CCCN1C(=O)CN(CC)C(=O)CNC(=O)[C@H]([C@@H](C)CC)NC(=O)[C@H](CC(C)C)N(C)C(=O)C[C@@H](C(=O)N2CCOCC2)N(C)C(=O)[C@H](C2CCCC2)N(C)C(=O)C2(CCCC2)NC(=O)[C@@H]2CCCN2C(=O)[C@H](CCc2ccc(C(F)(F)F)c(Cl)c2)NC(=O)CN(C)C(=O)[C@@H]1Cc1ccc(C(F)(F)F)cc1 [PP1968] ([NMeL]IG[NEtG][NPrPhe(4-CF3)][Sar][hPhe(3-Cl-4-CF3)]P[Ac5c][NMeGly(cPent)][NMeD]-Morpholide; lactam N-11) | C (A compound having a KD ratio of 0.1 or more and less than 3 is denoted as C) | C (A compound having a KD ratio of 0.1 or more and less than 3 is denoted as C)
CCCN1C(=O)CN(C)C(=O)CNC(=O)[C@H]([C@@H](C)CC)NC(=O)[C@H](CC(C)C)N(C)C(=O)C[C@@H](C(=O)N2CCOCC2)N(C)C(=O)[C@H](C2CCCC2)N(C)C(=O)C2(CCCC2)NC(=O)[C@@H]2CCCN2C(=O)[C@H](CCc2ccc(C(F)(F)F)c(Cl)c2)NC(=O)CN(CC)C(=O)[C@@H]1Cc1ccc(C(F)(F)F)cc1 [PP1969] ([NMeL]IG[Sar][NPrPhe(4-CF3)][NEtG][hPhe(3-Cl-4-CF3)]P[Ac5c][NMeGly(cPent)][NMeD]-Morpholide; lactam N-11) | B (a compound having 3 or more and less than 10 is denoted as B) | C (A compound having a KD ratio of 0.1 or more and less than 3 is denoted as C)
